Test results taken from patent US9371337B2, “β-lactamase inhibitors” (The Regents of the University of California, priority 2011, dated 2016).
Like-named read-outs stand apart in the source and are kept apart here.

What was measured:
[1] = target: CTX-M-9 β-lactamase (Escherichia coli, UniProt Q9L5C8); test: biochemical; assay type: biochemical
Procedure: Reactions were initiated by the addition of 0.3 nM enzyme and monitored at 405 nm.
(§1) To assess the selectivity of the new molecules we determined Ki values against three common serine proteases, Trypsin, Elastase and α-Chymotrypsin, as well as that of a class A β-lactamase, CTX-M-9 (Table 10) (Pouvreau L, et al. (1998), FEBS Lett 423:167-172; Del Mar E G, et al. (1980), Biochemistry 19:468-472; Rodriguez-Martinez J A, et al. (2009), Biotechnol Lett 31:883-887; Chen Y, et al. (2005), J Mol Biol 348:349-362).

[2] = target: T1, AmpC β-lactamase (Escherichia coli, UniProt P00811); test: biochemical; assay type: biochemical
T1 construct: made in house
T1 sequence (P00811 20-377): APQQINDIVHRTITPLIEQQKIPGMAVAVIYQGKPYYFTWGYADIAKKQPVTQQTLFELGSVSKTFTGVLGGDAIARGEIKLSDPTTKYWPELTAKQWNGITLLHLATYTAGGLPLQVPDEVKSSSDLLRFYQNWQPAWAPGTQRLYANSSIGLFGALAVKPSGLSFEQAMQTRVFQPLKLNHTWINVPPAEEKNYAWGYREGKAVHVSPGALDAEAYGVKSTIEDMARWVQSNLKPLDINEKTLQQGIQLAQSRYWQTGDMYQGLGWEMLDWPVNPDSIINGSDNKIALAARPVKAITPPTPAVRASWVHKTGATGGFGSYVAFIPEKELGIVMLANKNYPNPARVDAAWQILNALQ

[3] = test system: Elastase; test: Elastase inhibition; assay type: biochemical; details: Table 4h, Elastase vs AmpC
From the text: as §1

[4] = target: T2, α-chymotrypsin (bovine pancreatic) (Bos taurus, UniProt P00766); test: α-Chymotrypsin inhibition; assay type: biochemical
T2 construct: purchased Sigma-Aldrich
Procedure: α-Chymotrypsin assays were performed in 50 mM Tris buffer pH 7.5 with 0.01% Triton-X. Inhibitor and 0.001 mg/mL enzyme were incubated at their final concentration for 10 min before the reaction was initiated by the addition of 200 μM N-succinyl-Ala-Ala-Pro-Phe p-nitroanilide and monitored at 410 nm.
as §1

[5] = target: T1, AmpC β-lactamase; assay type: biochemical
[6] = test system: clinical strains resistant to third-generation cephalosporins; test: MIC distribution of third-generation cephalosporins alone or with compounds over clinical strains; assay type: cell-based
Procedure: The anti-resistance activity of inhibitors was investigated by the determination of the minimum inhibitory concentrations (MICs) of the β-lactam/inhibitor combination necessary to inhibit the growth of clinically-isolated bacteria resistant to third-generation cephalosporins via expression of class A or class C β-lactamases (Table 6).
Susceptibility testing was performed and interpreted following the guidelines of CLSI. (Clinical and Laboratory Standards Institute, Performance standards for antimicrobial susceptibility testing, 20th Informational Supplement, M100-S20 2010) The compounds were dissolved in 50% DMSO, and dilutions were performed using Muller-Hinton medium. An adequate final concentration was obtained to determine the minimum inhibitory concentrations (MICs). The concentration of DMSO was maintained below 5%. The inhibitors were tested for synergy with the third-generation β-lactams ceftazidime and cefotaxime against several clinical bacteria. The ratio of β-lactams to inhibitors was 1:4. Each value reported reflects the average of three independent experiments. […] The Friedman's test and the Wilcoxon signed rank test were used to compare MIC values. Statistical significance was established at p<0.05.

[7] = target: T3, Trypsin (UniProt P00760); test: Trypsin inhibition; assay type: biochemical; details: Table 10, Trypsin
T3 construct: IC50 (Estimated from single concentration measurement); Ki
T3 sequence (P00760 1-246): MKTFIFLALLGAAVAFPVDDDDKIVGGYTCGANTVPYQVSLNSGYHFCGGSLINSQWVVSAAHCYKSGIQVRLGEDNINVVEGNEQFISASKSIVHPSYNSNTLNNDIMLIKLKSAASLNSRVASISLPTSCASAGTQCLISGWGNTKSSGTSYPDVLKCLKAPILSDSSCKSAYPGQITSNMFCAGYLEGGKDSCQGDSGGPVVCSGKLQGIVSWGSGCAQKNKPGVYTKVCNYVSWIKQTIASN
From the text: as §1

[8] = target: T3, Trypsin; test: Trypsin inhibition; assay type: biochemical
[9] = test system: Trypsin; test: Trypsin inhibition; assay type: biochemical; details: Table 4h, Trypsin vs AmpC
[10] = test system: P. aeruginosa overproducing chromosomally-mediated class C β-lactamase; test: MIC of third-generation cephalosporins alone and with compounds 4 or 9 (Table 3); assay type: cell-based, Pseudomonas aeruginosa; details: ratio 1:1
From the text: (§2) Antimicrobial activity was investigated quantitatively to determine the minimum inhibitory concentrations (MICs) of the β-lactam/inhibitor combination necessary to inhibit the bacterial growth (Table 3). The MICs of β-lactams alone against the strains corresponded to a high level of resistance according to Clinical and Laboratory Standards Institute (CLSI) standards. (Clinical and Laboratory Standards Institute, Performance standards for antimicrobial susceptibility testing, 20th Informational Supplement, M100-S20 2010) The compounds had no measurable antibiotic activity when used alone.
(§3) Susceptibility testing was performed and interpreted following the guidelines of CLSI. (Clinical and Laboratory Standards Institute, Performance standards for antimicrobial susceptibility testing, 20th Informational Supplement, M100-S20 2010) The compounds were dissolved in 50% DMSO, and dilutions were performed using Muller-Hinton medium. An adequate final concentration was obtained to determine the minimum inhibitory concentrations (MICs). The concentration of DMSO was maintained below 5%. The inhibitors were tested for synergy with the third-generation β-lactams ceftazidime and cefotaxime against several clinical bacteria. […] Each value reported reflects the average of three independent experiments. […] A Klebsiella pneumoniae isolate produced the inducible plasmid-mediated class C enzyme DHA-1. The Friedman's test and the Wilcoxon signed rank test were used to compare MIC values. Statistical significance was established at p<0.05.

[11] = test system: E. cloacae overproducing chromosomally-mediated class C β-lactamase; test: as above; assay type: cell-based, Enterobacter cloacae; details: ratio 1:1
From the text: as §2, §3

[12] = test system: C. freundii overproducing chromosomally-mediated class C β-lactamase; test: as above; assay type: cell-based, Citrobacter freundii; details: ratio 1:1
From the text: as §2, §3

[13] = test system: K. pneumoniae producing the plasmid-mediated class C β-lactamase DHA-1; test: as above; assay type: cell-based, Klebsiella pneumoniae; details: ratio 1:1
From the text: as §2, §3

[14] = test system: Klebsiella pneumoniae strain producing AmpC β-lactamase; test: Disk diffusion plate assay; assay type: cell-based
From the text: (§4) FIG. 9. Inhibition of bacterial growth and potentiation effect. A) Activity of compounds 4 (CP4) and 9 (CP9) in combination with ceftazidime (CAZ) and alone against a Klebsiella pneumoniae strain producing AmpC β-lactamase. Solvent (SOL):DMSO/Water 1:1. B) Potentiation of β-lactamase inhibition in an E. cloacae strain in which ampC gene expression is inducible by β-lactam antibiotics, such as cefoxitin (FOX). C) Potentiation of β-lactamase inhibition in a Klebsiella pneumoniae isolate producing the inducible class C enzyme DHA-1.
For disk diffusion plate assays, bacterial strains were diluted in sterile water to a turbidity equivalent to 0.5 McFarland turbidity standards. After a subsequent 10-fold dilution, the bacterial suspensions were inoculated on Mueller Hinton agar. The plates were dried for 10 min before applying the disks containing cefotaxime or ceftazidime antibiotics (30 μg) or the inhibitor (30 μg) or both. After overnight incubation at 37° C., the zones of bacterial-growth inhibition were measured.

[15] = test system: E. coli producing plasmid-mediated class A β-lactamase CTX-M-14; test: MIC of third-generation cephalosporins alone and with compounds 4 or 9 (Table 3); assay type: cell-based, Escherichia coli; details: ratio 1:1
From the text: as §2, §3

[16] = test system: E. coli overproducing chromosomally-mediated class C β-lactamase; test: as above; assay type: cell-based, Escherichia coli; details: ratio 1:1
From the text: as §2, §3

[17] = target: cruzain (Trypanosoma cruzi, UniProt P25779); test: Cruzain inhibition, Z-FR-AMC cleavage; assay type: biochemical
Chain of cruzain (P25779 123-337 limits assumed): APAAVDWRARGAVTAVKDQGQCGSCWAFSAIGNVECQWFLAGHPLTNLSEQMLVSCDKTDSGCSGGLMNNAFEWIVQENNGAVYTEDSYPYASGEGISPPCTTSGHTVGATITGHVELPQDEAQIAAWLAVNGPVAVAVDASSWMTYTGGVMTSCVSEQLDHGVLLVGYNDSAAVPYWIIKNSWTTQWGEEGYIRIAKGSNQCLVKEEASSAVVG
Procedure: Cruzain assays were performed in 100 mM sodium acetate pH 5.5 with 0.01% Triton-X and 5 mM dithiothreitol. Cruzain activity was measured in a 96-well format fluorimetric assay, monitoring the cleavage of the substrate Z-Phe-Arg-aminomethylcoumarin (Z-FR-AMC), in a SpectraMax M5, Molecular Devices spectrofluorimeter.

[18] = test system: K. pneumoniae and E. cloacae strains in which AmpC expression is inducible; test: β-lactamase induction experiments (disk potentiation of ceftazidime); assay type: cell-based, Klebsiella pneumoniae; Enterobacter cloacae; details: 64 μg of compounds or 32 μg cefoxitin per disk, ceftazidime disk 30 μg
From the text: as §4
A traditional β-lactam resistance mechanism is the upregulation of β-lactamase-encoding gene transcription caused by β-lactams such as cefoxitin and the β-lactamase inhibitor clavulanate. To test the role of compounds on the induction of AmpC expression, we investigated their ability to potentiate the action of the β-lactam ceftazidime. We compared the potentiation effect of compounds with that of cefoxitin (FIGS. 9B and 9C). Agar plates were inoculated with K. pneumoniae and E. cloacae strains in which AmpC expression is inducible. A ceftazidime-containing disk and a disk containing the inhibitors (cefoxitin or compounds 4 and 9) were placed on each plate. As ceftazidime diffuses from disks into the agar, a clear zone is created around the ceftazidime-containing disk, indicating where bacteria are unable to grow. The shape of this halo in the vicinity of the inhibitor-containing disk indicated the effect of these compounds on the induction of AmpC. The inhibition halos normally surrounding ceftazidime were substantially diminished in the regions nearest to the cefoxitin disk.
For the β-lactamase induction experiments, plates of Mueller Hinton agar were inoculated with two clinical strains (E. cloacae and K. pneumoniae) in which production of AmpC-type enzyme is inducible by β-lactam antibiotics. Inhibitors were added to blank disks, and the final content of inhibitor per disk was 64 μg of compounds and 32 μg cefoxitin. Disks of ceftazidime contained 30 μg of antibiotic.

[19] = third-generation cephalosporins in combination with the compound

Chain of CTX-M-9 β-lactamase (Q9L5C8 29-291): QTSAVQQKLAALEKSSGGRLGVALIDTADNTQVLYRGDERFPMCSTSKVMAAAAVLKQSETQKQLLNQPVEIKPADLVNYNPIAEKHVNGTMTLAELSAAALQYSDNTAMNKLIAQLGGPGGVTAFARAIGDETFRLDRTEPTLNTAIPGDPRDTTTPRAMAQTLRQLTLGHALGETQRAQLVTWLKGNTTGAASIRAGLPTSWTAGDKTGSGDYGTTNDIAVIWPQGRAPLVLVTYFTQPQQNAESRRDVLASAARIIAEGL

For `O=S(=O)(NCB(O)O)c1ccc(-c2nn[nH]n2)cc1Cl` [CR190, [2-chloro-4-(3-tetrazol-5-yl)benzensulfonylamino]methaneboronic acid], the IC50 [1] was 4 µM, the Ki ([1]; Table 8, read-out: Ki vs CTX-M-9) was 1400 nM and the “Selectivity vs AmpC (comparison of IC50 values)” value (“Selectivity vs AmpC” for short) ([1]; Table 4h, CTX-M-9 vs AmpC) was 2346. For the same molecule, the potency estimated from few doses ([1]; read-out: IC50 (Estimated from single concentration measurement)) was 4 µM, the inhibition at 16 µM ([1]; read-out: Percentage inhibition with 16 μM inhibitor) was 81% and the IC50 [2] was 1.6 nM. For the same molecule, the Ki ([2]; Ki (from multi- or single concentration measurements), Table 4g) was 0.2 nM, the Ki ([2]; Ki Vs AmpC, Table 7) was 0.2 nM and the Ki ([2]; Ki vs AmpC, Table 8) was 0.2 nM. It also gave a Ki ([2]; Ki, Table 5) of 0.2 nM, a Ki ([2]; Ki, Table 10, AmpC) of 0.2 nM and a Ki ([2]; Ki, running text and FIG. 18, substrate CENTA 105 μM) of 0.2 nM. The Ligand efficiency ([2]; Table 5) was 0.65, the “improved affinity compared to CR157” value ([2]; ratio of Ki values) was 6 fold and the “Selectivity vs AmpC” value [3] was 30784. For the same molecule, the activity at 100 µM ([4]; Table 4b, 100 μM inhibitor, read-out: Percentage activity with 100 μM inhibitor) was 85%, the potency estimated from few doses ([4]; Table 4e, read-out: IC50 (Estimated from single concentration measurement)) was 567 µM and the Ki ([4]; Table 10, α-Chymotrypsin) was 141 µM. The “Selectivity vs AmpC” value ([4]; Table 4h, Chymotrypsin vs AmpC) was 354167, the inhibition at 100 µM ([4]; read-out: Percentage inhibition with 100 μM inhibitor) was 15% and the type of inhibition ([5]; Lineweaver-Burk analysis, competition with substrate CENTA) was “competitive”. For the same molecule, the “time dependence of inhibition (incubation effect, off-rate)” value ([5]; enzyme incubation and dilution experiments) was “slow off-rate”, the “clinical isolates for which MICs dropped into the susceptible range (MICs≦1 μg/mL)” value ([6]; cephalosporins combined with the compound) was 50% and the “MIC 25% percentile” value [6, 19] was 0.5 µg/mL. The “MIC 75% percentile” value [6, 19] was 2.0 µg/mL, the Ki [7] was 350 µM and the “Percentage activity with 100 μM inhibitor” value ([8]; Table 4b, 100 μM inhibitor) was 95. For the same molecule, the “Percentage inhibition with 100 μM inhibitor” value ([8]; Table 4c, 100 μM inhibitor) was 5, the potency estimated from few doses ([8]; read-out: IC50 (Estimated from single concentration measurement), Table 4e) was 1.9 mM and the “Selectivity vs AmpC” value [9] was 1187500. The melting point was 110 to 113 °C (dec.).
For `O=S(=O)(Cc1ccccc1)NCB(O)O` [Compound 4, Pinacol(phenylmethanesulfonylamino)methaneboronate], the Ki [1] was 2500 nM, the IC50 ([1]; Table 4a, read-out: IC50) was 6.87 µM and the Ki ([1]; read-out: Ki corresponding to the IC50 values) was 2530 nM. For the same molecule, the “MIC of cefotaxime with compound” value ([10]; cefotaxime + compound) was 16 µg/mL, the “MIC of ceftazidime with compound” value ([10]; ceftazidime + compound) was 4 µg/mL and the IC50 [4] was > 500 µM. For the same molecule, the “inhibition at 100 µM” value ([4]; 100 μM) was “no measurable inhibition”, the “MIC of cefotaxime with compound” value ([11]; cefotaxime + compound) was 4 µg/mL and the “MIC of ceftazidime with compound” value ([11]; ceftazidime + compound) was 4 µg/mL. The “MIC of cefotaxime with compound” value ([12]; cefotaxime + compound) was 2 µg/mL, the “MIC of ceftazidime with compound” value ([12]; ceftazidime + compound) was 4 µg/mL and the “MIC of cefotaxime with compound” value ([13]; cefotaxime + compound) was 4 µg/mL. The “MIC of ceftazidime with compound” value ([13]; ceftazidime + compound) was 8 µg/mL, the “inhibition of bacterial growth in combination with ceftazidime” value ([14]; disk with ceftazidime (30 μg) and inhibitor (30 μg)) was “large inhibition halo” and the “activity on bacteria growth, compound alone” value ([14]; disk with inhibitor alone (30 μg)) was “little or no detectable activity”. For the same molecule, the “MIC of cefotaxime with compound” value ([15]; cefotaxime + compound) was 16 µg/mL, the “MIC of ceftazidime with compound” value ([15]; ceftazidime + compound) was 2 µg/mL and the “MIC of cefotaxime with compound” value ([16]; cefotaxime + compound) was 1 µg/mL. For the same molecule, the “MIC of ceftazidime with compound” value ([16]; ceftazidime + compound) was 4 µg/mL, the IC50 [17] was > 500 µM and the “inhibition at 100 µM” value ([17]; 100 μM) was “no measurable inhibition”. For the same molecule, the “effect on the ceftazidime inhibition halo (induction of AmpC)” value [18] was “synergic picture”.
In the case of `CO[C@@]1(NC(=O)Cc2cccs2)C(=O)N2C(C(=O)O)=C(COC(N)=O)CS[C@@H]21` [cefoxitin, reference compound], the “effect on the ceftazidime inhibition halo (induction of AmpC)” value [18] is reported as “antagonist picture”.
